Data published in patent US9790228B2, “Heterocyclic kinase inhibitors” (Intellikine LLC, priority 2008, dated 2017).
Read-outs that look alike come from different tables or passages of the source.

Legend:
p110δ/p85α = p110δ/p85α (Homo sapiens (Human), UniProt O00329); test: PI3K δ inhibition assay (TLC lipid kinase or HTRF); type: biochemical
Experimental: (§1) Class I PI3-Ks can be either purchased (p110α/p85α, p110β/p85α, p110δ/p85α from Upstate, and p110γ from Sigma) or expressed as previously described (Knight et al., 2004). IC50 values are measured using either a standard TLC assay for lipid kinase activity (described below) or a high-throughput membrane capture assay. Kinase reactions are performed by preparing a reaction mixture containing kinase, inhibitor (2% DMSO final concentration), buffer (25 mM HEPES, pH 7.4, 10 mM MgCl2), and freshly sonicated phosphatidylinositol (100 μg/ml). Reactions are initiated by the addition of ATP containing 10 μCi of γ-32P-ATP to a final concentration 10 or 100 μM and allowed to proceed for 5 minutes at room temperature. For TLC analysis, reactions are then terminated by the addition of […] 1N HCl followed by 160 μl CHCl3:MeOH (1:1). The biphasic mixture is vortexed, briefly centrifuged, and the organic phase is transferred to a new tube using a gel loading pipette tip precoated with CHCl3. This extract is spotted on TLC plates and developed for 3-4 hours in a 65:35 solution of n-propanol:1M acetic acid. The TLC plates are then dried, exposed to a phosphorimager screen (Storm, Amersham), and quantitated. For each compound, kinase activity is measured at 10-12 inhibitor concentrations representing two-fold dilutions from the highest concentration tested (typically, 200 μM).
(§2) Other commercial kits or systems for assaying PI3-K activities are available. The commercially available kits or systems can be used to screen for inhibitors and/or agonists of PI3-Ks including but not limited to PI 3-Kinase α, β, δ, and γ. Anr exemplary system is PI3-Kinase (human) HTRF™ Assay from Upstate. […] Briefly, the assay is a time resolved FRET assay that indirectly measures PIP3 product formed by the activity of a PI3-K. The kinase reaction is performed in a microtitre plate (e.g., a 384 well microtitre plate). The total reaction volume is approximately 20 ul per well. In the first step, each well receives 2 ul of test compound in 20% dimethylsulphoxide resulting in a 2% DMSO final concentration. Next, approximately 14.5 ul of a kinase/PIP2 mixture (diluted in 1× reaction buffer) is added per well for a final concentration of 0.25-0.3 ug/ml kinase and 10 uM PIP2. The plate is sealed and incubated for 15 minutes at room temperature. To start the reaction, 3.5 ul of ATP (diluted in 1× reaction buffer) is added per well for a final concentration of 10 uM ATP. The plate is sealed and incubated for 1 hour at room temperature. The reaction is stopped by adding 5 ul of Stop Solution per well and then 5 ul of Detection Mix is added per well. The plate is sealed, incubated for 1 hour at room temperature, and then read on an appropriate plate reader. Data is analyzed and IC50s are generated using GraphPad Prism 5.

p110γ = p110γ (Homo sapiens (Human), UniProt P48736); test: PI3K γ inhibition assay (TLC lipid kinase or HTRF); type: biochemical
Chain of p110γ (P48736 whole entry): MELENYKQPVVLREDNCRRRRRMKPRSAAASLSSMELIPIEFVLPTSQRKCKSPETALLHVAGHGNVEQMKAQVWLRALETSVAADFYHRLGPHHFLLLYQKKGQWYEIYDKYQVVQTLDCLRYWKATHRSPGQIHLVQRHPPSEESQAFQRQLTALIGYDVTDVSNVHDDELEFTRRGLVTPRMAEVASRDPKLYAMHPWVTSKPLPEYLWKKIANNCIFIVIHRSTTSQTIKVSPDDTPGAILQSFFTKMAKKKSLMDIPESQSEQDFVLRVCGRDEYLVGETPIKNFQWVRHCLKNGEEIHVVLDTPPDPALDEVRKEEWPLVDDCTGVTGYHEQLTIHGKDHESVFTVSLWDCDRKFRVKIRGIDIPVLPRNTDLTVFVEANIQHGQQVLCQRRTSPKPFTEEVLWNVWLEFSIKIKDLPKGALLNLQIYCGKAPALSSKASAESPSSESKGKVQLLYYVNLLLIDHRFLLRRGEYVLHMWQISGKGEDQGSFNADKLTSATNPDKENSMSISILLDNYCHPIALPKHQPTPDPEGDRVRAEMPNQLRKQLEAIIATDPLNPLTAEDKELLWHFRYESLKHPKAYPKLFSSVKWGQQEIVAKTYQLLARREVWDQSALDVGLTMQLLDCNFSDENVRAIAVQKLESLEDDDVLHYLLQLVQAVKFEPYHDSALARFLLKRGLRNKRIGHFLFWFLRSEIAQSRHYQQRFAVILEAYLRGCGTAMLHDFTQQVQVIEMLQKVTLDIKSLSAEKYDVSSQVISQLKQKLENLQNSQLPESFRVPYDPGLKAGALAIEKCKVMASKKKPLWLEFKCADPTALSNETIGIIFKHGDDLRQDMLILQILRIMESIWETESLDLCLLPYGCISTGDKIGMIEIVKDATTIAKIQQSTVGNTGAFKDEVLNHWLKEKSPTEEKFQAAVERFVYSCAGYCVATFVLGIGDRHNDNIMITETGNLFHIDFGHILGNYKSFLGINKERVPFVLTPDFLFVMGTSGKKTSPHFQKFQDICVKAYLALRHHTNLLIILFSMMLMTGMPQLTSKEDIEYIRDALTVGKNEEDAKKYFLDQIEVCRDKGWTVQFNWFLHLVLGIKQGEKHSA
Experimental: as §1, §2

p110α/p85α = p110α/p85α (Homo sapiens (Human), UniProt P42336); test: PI3K α inhibition assay (TLC lipid kinase or HTRF); type: biochemical
Chain of p110α/p85α (P42336 whole entry): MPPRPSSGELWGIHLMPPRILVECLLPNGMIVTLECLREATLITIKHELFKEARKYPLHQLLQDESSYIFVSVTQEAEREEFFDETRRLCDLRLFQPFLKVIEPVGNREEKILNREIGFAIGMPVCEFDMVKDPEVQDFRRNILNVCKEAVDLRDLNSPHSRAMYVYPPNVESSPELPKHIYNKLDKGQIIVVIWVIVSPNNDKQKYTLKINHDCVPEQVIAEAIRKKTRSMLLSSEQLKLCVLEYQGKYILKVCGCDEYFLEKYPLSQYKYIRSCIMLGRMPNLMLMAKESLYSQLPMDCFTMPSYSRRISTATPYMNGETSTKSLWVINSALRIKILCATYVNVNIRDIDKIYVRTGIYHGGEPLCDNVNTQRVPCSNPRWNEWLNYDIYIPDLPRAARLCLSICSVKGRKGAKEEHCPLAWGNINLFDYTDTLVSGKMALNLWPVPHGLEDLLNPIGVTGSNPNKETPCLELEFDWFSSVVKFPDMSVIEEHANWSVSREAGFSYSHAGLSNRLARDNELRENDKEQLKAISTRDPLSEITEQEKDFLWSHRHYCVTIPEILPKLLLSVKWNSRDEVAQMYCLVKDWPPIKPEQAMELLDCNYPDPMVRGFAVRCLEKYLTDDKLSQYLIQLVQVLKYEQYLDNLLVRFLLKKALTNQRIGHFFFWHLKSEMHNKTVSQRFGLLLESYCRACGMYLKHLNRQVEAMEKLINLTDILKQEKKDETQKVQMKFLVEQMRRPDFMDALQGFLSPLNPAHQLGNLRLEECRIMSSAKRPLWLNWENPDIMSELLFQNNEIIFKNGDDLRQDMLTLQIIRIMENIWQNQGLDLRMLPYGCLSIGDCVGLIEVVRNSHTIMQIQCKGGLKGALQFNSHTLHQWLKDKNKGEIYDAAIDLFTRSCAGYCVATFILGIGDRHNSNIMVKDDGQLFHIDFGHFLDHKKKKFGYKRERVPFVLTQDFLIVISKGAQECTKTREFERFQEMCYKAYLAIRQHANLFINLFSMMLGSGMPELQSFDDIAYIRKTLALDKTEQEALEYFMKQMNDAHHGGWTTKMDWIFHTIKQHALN
Chain of p110α/p85α (P27986 whole entry partner): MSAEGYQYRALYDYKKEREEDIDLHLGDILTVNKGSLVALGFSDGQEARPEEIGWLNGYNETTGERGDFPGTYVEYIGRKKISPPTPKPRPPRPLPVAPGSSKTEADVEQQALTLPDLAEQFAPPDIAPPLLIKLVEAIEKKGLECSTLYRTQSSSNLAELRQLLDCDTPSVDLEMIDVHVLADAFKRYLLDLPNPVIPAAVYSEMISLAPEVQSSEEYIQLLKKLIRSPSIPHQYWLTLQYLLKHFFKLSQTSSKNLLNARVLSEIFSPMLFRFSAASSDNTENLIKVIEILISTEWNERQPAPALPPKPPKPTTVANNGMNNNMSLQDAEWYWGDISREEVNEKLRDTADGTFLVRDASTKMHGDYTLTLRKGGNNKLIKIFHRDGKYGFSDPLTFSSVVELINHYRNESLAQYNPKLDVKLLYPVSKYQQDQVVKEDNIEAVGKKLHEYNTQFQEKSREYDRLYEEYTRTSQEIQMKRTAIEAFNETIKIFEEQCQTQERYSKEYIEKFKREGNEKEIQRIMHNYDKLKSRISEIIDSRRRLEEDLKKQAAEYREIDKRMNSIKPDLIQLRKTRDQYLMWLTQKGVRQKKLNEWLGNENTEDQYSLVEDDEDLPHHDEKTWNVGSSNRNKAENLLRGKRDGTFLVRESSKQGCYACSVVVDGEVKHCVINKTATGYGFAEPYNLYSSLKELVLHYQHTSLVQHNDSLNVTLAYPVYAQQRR
Experimental: as §1, §2

p110β/p85α = p110β/p85α (Homo sapiens, UniProt P42338); test: PI3K β inhibition assay (TLC lipid kinase or HTRF); type: biochemical; conditions: read-out: PI3K β IC50
Chain of p110β/p85α (P42338 whole entry, looked up): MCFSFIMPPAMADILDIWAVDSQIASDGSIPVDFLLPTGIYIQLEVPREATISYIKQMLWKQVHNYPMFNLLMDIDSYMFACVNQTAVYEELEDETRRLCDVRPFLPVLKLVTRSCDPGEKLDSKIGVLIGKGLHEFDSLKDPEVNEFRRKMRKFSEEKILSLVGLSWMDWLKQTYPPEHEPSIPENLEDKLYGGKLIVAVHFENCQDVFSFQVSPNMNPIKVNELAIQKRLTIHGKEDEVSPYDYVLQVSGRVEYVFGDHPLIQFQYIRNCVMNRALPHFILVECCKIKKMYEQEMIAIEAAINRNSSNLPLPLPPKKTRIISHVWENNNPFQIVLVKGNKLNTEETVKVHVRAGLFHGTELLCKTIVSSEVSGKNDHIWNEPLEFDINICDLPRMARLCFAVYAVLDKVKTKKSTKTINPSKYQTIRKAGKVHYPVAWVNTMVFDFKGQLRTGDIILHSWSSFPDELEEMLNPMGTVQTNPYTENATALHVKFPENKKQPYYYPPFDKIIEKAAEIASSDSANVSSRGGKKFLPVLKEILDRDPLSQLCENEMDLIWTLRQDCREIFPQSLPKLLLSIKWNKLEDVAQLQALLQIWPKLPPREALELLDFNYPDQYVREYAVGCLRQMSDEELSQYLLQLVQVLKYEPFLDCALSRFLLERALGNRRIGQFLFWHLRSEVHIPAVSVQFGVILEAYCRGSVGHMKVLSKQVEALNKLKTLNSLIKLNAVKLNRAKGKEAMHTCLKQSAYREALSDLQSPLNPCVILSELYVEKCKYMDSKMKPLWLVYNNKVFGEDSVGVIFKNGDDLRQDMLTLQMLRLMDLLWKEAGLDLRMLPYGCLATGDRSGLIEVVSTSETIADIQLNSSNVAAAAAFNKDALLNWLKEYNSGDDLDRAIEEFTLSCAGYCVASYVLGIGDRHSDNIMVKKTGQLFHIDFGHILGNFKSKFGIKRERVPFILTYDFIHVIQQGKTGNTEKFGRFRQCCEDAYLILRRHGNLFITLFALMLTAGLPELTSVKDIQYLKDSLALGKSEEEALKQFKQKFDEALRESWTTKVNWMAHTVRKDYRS
Experimental: as §1, §2

Balb/c splenic B cells = test: B cell activation and proliferation assay (Alamar Blue); type: cell-based, mouse
Experimental: The ability of one or more subject compounds to inhibit B cell activation and proliferation is determined according to standard procedures known in the art. For example, an in vitro cellular proliferation assay is established that measures the metabolic activity of live cells. The assay is performed in a 96 well microtiter plate using Alamar Blue reduction. Balb/c splenic B cells are purified over a Ficoll-Paque™ PLUS gradient followed by magnetic cell separation using a MACS B cell Isolation Kit (Miletenyi). Cells are plated in 90 ul at 50,000 cells/well in B Cell Media (RPMI+10% FBS+Penn/Strep+50 uM bME+5 mM HEPES). A compound disclosed herein is diluted in B Cell Media and added in a 10 ul volume. Plates are incubated for 30 min at 37 C and 5% CO2 (0.2% DMSO final concentration). A 50 ul B cell stimulation cocktail is then added containing either 10 ug/ml LPS or 5 ug/ml F(ab′)2 Donkey anti-mouse IgM plus 2 ng/ml recombinant mouse IL4 in B Cell Media. Plates are incubated for 72 hours at 37° C. and 5% CO2. A volume of 15 uL of Alamar Blue reagent is added to each well and plates are incubated for 5 hours at 37 C and 5% CO2. Alamar Blue fluoresce is read at 560Ex/590Em, and IC50 or EC50 values are calculated using GraphPad Prism 5.

Chain of p110δ/p85α (O00329 whole entry): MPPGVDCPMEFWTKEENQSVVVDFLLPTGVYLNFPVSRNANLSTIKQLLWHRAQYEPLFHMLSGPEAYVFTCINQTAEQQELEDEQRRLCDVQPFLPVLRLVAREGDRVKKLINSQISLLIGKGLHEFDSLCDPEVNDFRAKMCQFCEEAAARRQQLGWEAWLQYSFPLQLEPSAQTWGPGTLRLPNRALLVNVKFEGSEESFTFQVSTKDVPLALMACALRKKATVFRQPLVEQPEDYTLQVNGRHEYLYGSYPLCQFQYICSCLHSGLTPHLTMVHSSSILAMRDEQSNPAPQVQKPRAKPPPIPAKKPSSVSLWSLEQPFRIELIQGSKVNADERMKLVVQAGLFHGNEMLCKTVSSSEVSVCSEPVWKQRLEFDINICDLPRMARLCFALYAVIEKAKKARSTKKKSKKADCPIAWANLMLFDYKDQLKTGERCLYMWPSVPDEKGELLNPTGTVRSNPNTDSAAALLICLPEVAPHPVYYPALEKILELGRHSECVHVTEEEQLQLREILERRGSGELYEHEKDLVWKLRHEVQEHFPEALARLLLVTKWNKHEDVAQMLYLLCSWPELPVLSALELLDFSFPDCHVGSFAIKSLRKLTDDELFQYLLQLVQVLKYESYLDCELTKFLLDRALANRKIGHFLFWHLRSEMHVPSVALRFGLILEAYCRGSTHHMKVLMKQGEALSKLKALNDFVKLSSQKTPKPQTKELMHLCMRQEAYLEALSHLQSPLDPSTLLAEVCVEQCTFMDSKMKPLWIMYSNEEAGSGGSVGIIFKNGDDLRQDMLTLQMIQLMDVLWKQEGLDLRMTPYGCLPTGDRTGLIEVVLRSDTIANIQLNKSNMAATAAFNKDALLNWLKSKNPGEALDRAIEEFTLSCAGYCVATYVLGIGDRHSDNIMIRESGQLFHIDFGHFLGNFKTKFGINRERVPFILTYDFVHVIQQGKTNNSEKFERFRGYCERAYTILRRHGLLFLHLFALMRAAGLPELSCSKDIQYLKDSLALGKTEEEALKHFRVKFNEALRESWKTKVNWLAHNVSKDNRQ
Chain of p110δ/p85α (P27986 whole entry partner): as the sequence (P27986 whole entry partner) above

| Structure (SMILES) | IC50 (p110δ/p85α) | IC50 (p110γ) | IC50 (p110α/p85α) | IC50 (p110β/p85α) | EC50 (Balb/c splenic B cells; Mus musculus, B-cell) | EC50 (Balb/c splenic B cells) |
| --- | --- | --- | --- | --- | --- | --- |
| CC(c1cc2ccccc2nc1-c1ccccc1)n1cnc2c(N)ncnc21 (stereo not shown) [Compound 60] | > 1 µM | > 1 µM | – | – | > 1 µM | – |
| Nc1nc2ccc(-c3nn(Cc4cc5ccccc5nc4N4CCCC4)c4ncnc(N)c34)cc2s1 [Compound 196] | < 0.1 µM | < 0.1 µM | 0.1 to 1 µM | – | – | 0.1 to 1 µM |
| Cc1ccccc1-c1nc2ccccc2n1CCn1nc(-c2cc(O)cc(F)c2)c2c(N)ncnc21 [Compound 127] | < 0.1 µM | > 1 µM | – | – | 0.1 to 1 µM | – |
| CC(=O)Nc1nc2ccc(-c3nn(Cc4cc5ccccc5nc4N4CCOCC4)c4ncnc(N)c34)cc2s1 [Compound 128] | < 0.1 µM | < 0.1 µM | < 0.1 µM | – | < 0.1 µM | – |
| Nc1ncnc2c1c(-c1cccc(O)c1)nn2Cc1cc2ccccc2nc1N1CCCC1 [Compound 47] | < 0.1 µM | < 0.1 µM | – | – | < 0.1 µM | – |
| C[C@@H](O)C#Cc1nn(Cc2cc3ccccc3nc2-c2ccccc2C(F)(F)F)c2ncnc(N)c12 [Compound 49] | 0.1 to 1 µM | > 1 µM | – | – | 0.1 to 1 µM | – |
| CC(C)N(C)c1nc2ccccc2cc1Cn1nc(-c2ccc3nc(N)sc3c2)c2c(N)ncnc21 [Compound 154] | < 0.1 µM | 0.1 to 1 µM | < 0.1 µM | – | < 0.1 µM | – |
| CC(C)N(C)c1nc2ccccc2cc1Cn1nc(-c2cccc(O)c2)c2c(N)ncnc21 [Compound 150] | < 0.1 µM | < 0.1 µM | – | > 1 µM | < 0.1 µM | – |
| Cc1cccc2cc(Cn3nc(-c4cc(O)cc(F)c4)c4c(N)ncnc43)c(N3CCCC3)nc12 [Compound 9] | < 0.1 µM | – | > 1 µM | > 1 µM | < 0.1 µM | – |
| C[C@@H](O)C#Cc1nn(Cc2cc3ccccc3nc2N2CCCC2)c2ncnc(N)c12 [Compound 48] | 0.1 to 1 µM | > 1 µM | – | – | 0.1 to 1 µM | – |
| CC(=O)Nc1nc2ccc(-c3nn(Cc4cc5ccccc5nc4N(C)C(C)C)c4ncnc(N)c34)cc2s1 [Compound 151] | < 0.1 µM | < 0.1 µM | – | 0.1 to 1 µM | < 0.1 µM | – |
| Nc1ncnc2c1c(-c1ccc3cc[nH]c3c1)nn2Cc1cc2ccccc2nc1N1CCCC1 [Compound 147] | < 0.1 µM | < 0.1 µM | 0.1 to 1 µM | – | 0.1 to 1 µM | – |
| Cc1cn(-c2nc3ccccc3cc2Cn2nc(-c3ccc4nc(N)sc4c3)c3c(N)ncnc32)cn1 [Compound 176] | < 0.1 µM | – | 0.1 to 1 µM | > 1 µM | < 0.1 µM | – |
| Nc1ncnc2c1c(-c1cccc(O)c1)nn2Cc1cc2ccccc2nc1-c1ccccc1C(F)(F)F [Compound 46] | < 0.1 µM | 0.1 to 1 µM | – | – | 0.1 to 1 µM | – |

The next lines start with results.

| IC50 (p110δ/p85α) | IC50 (p110γ) | IC50 (p110α/p85α) | IC50 (p110β/p85α) | Structure (SMILES) | EC50 (Balb/c splenic B cells; Mus musculus, B-cell) | EC50 (Balb/c splenic B cells) |
| --- | --- | --- | --- | --- | --- | --- |
| < 0.1 µM | > 1 µM | > 1 µM | > 1 µM | CC(c1cc2ccccc2nc1-c1ccccc1)n1nc(C#C[C@@H](C)O)c2c(N)ncnc21 (stereo partly shown) [Compound 71] | 0.1 to 1 µM | – |
| < 0.1 µM | < 0.1 µM | > 1 µM | > 1 µM | CC(=O)Nc1nc2ccc(-c3nn(Cc4cc5ccccc5nc4-c4ccccc4F)c4ncnc(N)c34)cc2s1 [Compound 83] | < 0.1 µM | – |
| < 0.1 µM | < 0.1 µM | < 0.1 µM | 0.1 to 1 µM | Nc1nc2ccc(-c3nn(Cc4cc5ccccc5nc4N4CCOCC4)c4ncnc(N)c34)cc2s1 [Compound 129] | < 0.1 µM | – |
| < 0.1 µM | < 0.1 µM | – | > 1 µM | Nc1ncnc2c1c(-c1cccc(O)c1)nn2Cc1cc2ccccc2nc1-c1ccccc1 [Compound 148] | < 0.1 µM | – |
| < 0.1 µM | < 0.1 µM | < 0.1 µM | > 1 µM | CC(=O)Nc1nc2ccc(-c3nn(Cc4cc5ccccc5nc4N4CCCC4)c4ncnc(N)c34)cc2s1 [Compound 195] | < 0.1 µM | – |
| < 0.1 µM | < 0.1 µM | > 1 µM | – | Cc1ccccc1-c1nc2ccccc2cc1Cn1nc(-c2ccc3nc(N)[nH]c3c2)c2c(N)ncnc21 [Compound 182] | 0.1 to 1 µM | – |
| < 0.1 µM | > 1 µM | > 1 µM | 0.1 to 1 µM | CC(=O)Nc1nc2ccc(-c3nn(Cc4cc5ccccc5nc4N4CCN(C)CC4)c4ncnc(N)c34)cc2[nH]1 [Compound 185] | < 0.1 µM | – |
| < 0.1 µM | > 1 µM | > 1 µM | < 0.1 µM | CN1CCN(c2nc3ccccc3cc2Cn2nc(-c3cc(O)cc(F)c3)c3c(N)ncnc32)CC1 [Compound 50] | < 0.1 µM | – |
| < 0.1 µM | < 0.1 µM | > 1 µM | > 1 µM | CC(=O)Nc1nc2ccc(-c3nn(Cc4cc5ccccc5nc4-c4ccccc4C)c4ncnc(N)c34)cc2s1 [Compound 84] | < 0.1 µM | – |
| < 0.1 µM | – | > 1 µM | > 1 µM | Cc1cccc2cc(Cn3nc(-c4cccc(O)c4)c4c(N)ncnc43)c(N3CCCC3)nc12 [Compound 10] | 0.1 to 1 µM | – |
| < 0.1 µM | > 1 µM | > 1 µM | – | Nc1nc2cc(-c3nn(Cc4cc5ccccc5nc4-c4ccccc4C(F)(F)F)c4ncnc(N)c34)ccc2[nH]1 [Compound 155] | 0.1 to 1 µM | – |
| < 0.1 µM | > 1 µM | > 1 µM | – | CN1CCN(c2ncccc2Cn2nc(-c3cc(O)cc(F)c3)c3c(N)ncnc32)CC1 [Compound 200] | 0.1 to 1 µM | – |
| < 0.1 µM | – | 0.1 to 1 µM | > 1 µM | CC(=O)Nc1nc2ccc(-c3nn(Cc4cc5ccccc5nc4N4CCCC4C)c4ncnc(N)c34)cc2s1 (stereo not shown) [Compound 186] | < 0.1 µM | – |
| < 0.1 µM | – | > 1 µM | < 0.1 µM | Nc1ncnc2c1c(-c1cc(O)cc(F)c1)nn2Cc1cc2ccccc2nc1CN1CCCC1 [Compound 174] | < 0.1 µM | – |
| < 0.1 µM | 0.1 to 1 µM | – | – | CC(c1cc2ccccc2nc1N1CCCC1)n1nc(-c2cccc(O)c2)c2c(N)ncnc21 (stereo not shown) [Compound 32] | < 0.1 µM | – |
| < 0.1 µM | – | < 0.1 µM | 0.1 to 1 µM | CC1CCCN1c1nc2ccccc2cc1Cn1nc(-c2ccc3nc(N)sc3c2)c2c(N)ncnc21 (stereo not shown) [Compound 187] | < 0.1 µM | – |
| < 0.1 µM | – | 0.1 to 1 µM | > 1 µM | Cc1nccn1-c1cc2ccccc2cc1Cn1nc(-c2ccc3nc(N)sc3c2)c2c(N)ncnc21 [Compound 175] | < 0.1 µM | – |
| < 0.1 µM | > 1 µM | – | – | NCc1ccc(F)cc1-c1nc2ccccc2cc1Cn1nc(-c2cc(O)cc(F)c2)c2c(N)ncnc21 [Compound 26] | < 0.1 µM | – |
| < 0.1 µM | < 0.1 µM | – | – | Nc1ncnc2c1c(-c1cc(O)cc(F)c1)nn2Cc1cnc2ccccc2c1 [Compound 61] | < 0.1 µM | – |
